# Results as given in patent US8133491B1, “Compositions and methods for treatment of hyperplastic disorders” (priority 2009, dated 2012).
# Assays:
# [1] = tested on: prostate; assay: Intraprostatic injection in rats: prostate weight / size; set-up: species or system Sprague-Dawley rats; details: rat, in vivo
# [2] = tested on: prostate; assay: Histology (hematoxylin and eosin) of injected rat prostates; set-up: species or system Sprague-Dawley rats; details: in vivo
# Protocol: (§1) Rats were anesthetized with isoflurane gas. The hair was shaved and the incision region was scrubbed with Betadine. A lower abdominal midline incision was made providing exposure to the bladder and prostate. 0.1 mL of toxin or saline was injected into each right and left ventral lobe using a 30-gauge needle. The abdominal wall and skin were then closed in two layers. After 2 weeks the animals were sacrificed by an overdose of sodium Pentobarbital (200 mg/kg i.p.) The prostates were removed en bloc along with the bladder and urethra. The prostates were then carefully dissected from the bladder neck and urethra, weighed and fixed in 10% phosphate buffered formalin.
# The fixed prostates were embedded in paraffin and sectioned at a thickness of 4 microns. Sections were stained with hematoxylin and eosin and analyzed for morphology. […] Under 400× magnification, four random areas of the ventral prostate from each animal were examined and the total numbers of stained and unstained cells were counted in the entire field. […] The mean number of stained and unstained cells was determined for each animal.
# [3] = tested on: ventral prostate; assay: TUNEL stain for apoptosis in prostate sections; set-up: species or system Sprague-Dawley rats; details: rat, in vivo
# Protocol: (§2) The fixed prostates were embedded in paraffin and sectioned at a thickness of 4 microns. Sections were stained with hematoxylin and eosin and analyzed for morphology. Immunohistochemical analysis was performed on prostate sections for evidence of apoptosis with TUNEL stain (terminal deoxynucleotidyl-mediated deoxyuridine triphosphate nick end labeling) using a commercially available kit (GenScript Corporation, Piscataway, N.J.), and for cellular proliferation with PCNA stain (proliferating cell nuclear antigen) using a commercially available kit (Invitrogen Corporation, Camarillo, Calif.). A stained slide from each animal was randomly assigned a number in a blind fashion. Under 400× magnification, four random areas of the ventral prostate from each animal were examined and the total numbers of stained and unstained cells were counted in the entire field. This was done for both TUNEL and PCNA stained slides for each animal. The mean number of stained and unstained cells was determined for each animal.
# [4] = tested on: ventral prostate; assay: PCNA stain for cellular proliferation in prostate sections; set-up: species or system Sprague-Dawley rats; details: rat, in vivo
# Protocol: as §2
# [5] = Body weight and complications after intraprostatic injection; set-up: species or system Sprague-Dawley rats; details: rat, in vivo
# Text: Eighteen adult male Sprague-Dawley rats (420-560 g) were used in this study. The animals were housed in the animal care center under controlled lighting conditions (lights on 6 AM-6 PM), with food and water always available. The animals were monitored for behavior, food and water intake, and weight. Subsequent experiments were approved by the University of Toledo's Institutional Animal Care and Use Committee.
# as §1
# [6] = tested on: prostate; details: rat, in vivo; cited from earlier work
substance,measurement,setting,value
Botulinum toxin type A [BTA],Prostate Wt (grams) Mean,[1],2.627 grams
same,Prostate Wt /100 g Body Wt Mean,[1],0.586
same,prostate size / weight (in words),[1],did not show a statistically significant decrease in prostatic weight
same,histology of prostate (in words),[2],prostatic atrophy of the glandular component with flattening of the epithelial lining
same,TUNEL Assay # of Apoptotic Cells Mean,[3],211.1
same,"number of apoptotic cells, TUNEL staining (in words)",[3],significant increase in the number of apoptotic cells
same,PCNA Assay # of Proliferating Cells Mean,[4],26.2
same,"cellular proliferation, PCNA staining (in words)",[4],significant increase in cellular proliferation
same,2 wks Post-Injection Wt (grams) Mean,[5],449 grams
same,Change in Body Weight Mean,[5],−51.667
same,Pre-Injection Wt (grams) Mean,[5],501 grams
same,body weight (in words),[5],significant loss in body weight
same,prostatic weight (Doggweiler et al.),[6],decrease in prostatic weight
